Source: PMC10408569, “Recruitment of hexahydroquinoline as anticancer scaffold targeting inhibition of wild and mutants EGFR (EGFR^WT, EGFR^T790M, and EGFR^L858R)” (Journal of Enzyme Inhibition and Medicinal Chemistry, 2023)

Key:
OVCAR-4 = assay: NCI-60 anticancer screening (SRB); assay type: cell-based; settings: Homo sapiens; for inhibition at 10 µM: OVCAR-4, ovarian cancer, one dose 10 μM, read-out: Growth Inhibition Percentage (GI %)
UO-31 = assay: NCI-60 anticancer screening (SRB); assay type: cell-based; settings: Homo sapiens; for inhibition at 10 µM: UO-31, renal cancer, one dose 10 μM, read-out: Growth Inhibition Percentage (GI %)
OVCAR-8 = assay: NCI-60 anticancer screening (SRB); assay type: cell-based; settings: Homo sapiens; for inhibition at 10 µM: OVCAR-8, ovarian cancer, one dose 10 μM, read-out: Growth Inhibition Percentage (GI %)
MDA-MB-231 = assay: NCI-60 anticancer screening (SRB); assay type: cell-based; settings: Homo sapiens; for inhibition at 10 µM: MDA-MB-231, breast cancer, one dose 10 μM, read-out: Growth Inhibition Percentage (GI %)
OVCAR-3 = assay: NCI-60 anticancer screening (SRB); assay type: cell-based; settings: Homo sapiens; for inhibition at 10 µM: OVCAR-3, ovarian cancer, one dose 10 μM, read-out: Growth Inhibition Percentage (GI %)
HS 578T = assay: NCI-60 anticancer screening (SRB); assay type: cell-based; settings: Homo sapiens; for inhibition at 10 µM: HS 578T, breast cancer, one dose 10 μM, read-out: Growth Inhibition Percentage (GI %)
EGFR^T790M = EGFR^T790M (Homo sapiens, UniProt P00533, T790M); assay: biochemical
Sequence of EGFR^T790M (P00533 25-1210 T790M): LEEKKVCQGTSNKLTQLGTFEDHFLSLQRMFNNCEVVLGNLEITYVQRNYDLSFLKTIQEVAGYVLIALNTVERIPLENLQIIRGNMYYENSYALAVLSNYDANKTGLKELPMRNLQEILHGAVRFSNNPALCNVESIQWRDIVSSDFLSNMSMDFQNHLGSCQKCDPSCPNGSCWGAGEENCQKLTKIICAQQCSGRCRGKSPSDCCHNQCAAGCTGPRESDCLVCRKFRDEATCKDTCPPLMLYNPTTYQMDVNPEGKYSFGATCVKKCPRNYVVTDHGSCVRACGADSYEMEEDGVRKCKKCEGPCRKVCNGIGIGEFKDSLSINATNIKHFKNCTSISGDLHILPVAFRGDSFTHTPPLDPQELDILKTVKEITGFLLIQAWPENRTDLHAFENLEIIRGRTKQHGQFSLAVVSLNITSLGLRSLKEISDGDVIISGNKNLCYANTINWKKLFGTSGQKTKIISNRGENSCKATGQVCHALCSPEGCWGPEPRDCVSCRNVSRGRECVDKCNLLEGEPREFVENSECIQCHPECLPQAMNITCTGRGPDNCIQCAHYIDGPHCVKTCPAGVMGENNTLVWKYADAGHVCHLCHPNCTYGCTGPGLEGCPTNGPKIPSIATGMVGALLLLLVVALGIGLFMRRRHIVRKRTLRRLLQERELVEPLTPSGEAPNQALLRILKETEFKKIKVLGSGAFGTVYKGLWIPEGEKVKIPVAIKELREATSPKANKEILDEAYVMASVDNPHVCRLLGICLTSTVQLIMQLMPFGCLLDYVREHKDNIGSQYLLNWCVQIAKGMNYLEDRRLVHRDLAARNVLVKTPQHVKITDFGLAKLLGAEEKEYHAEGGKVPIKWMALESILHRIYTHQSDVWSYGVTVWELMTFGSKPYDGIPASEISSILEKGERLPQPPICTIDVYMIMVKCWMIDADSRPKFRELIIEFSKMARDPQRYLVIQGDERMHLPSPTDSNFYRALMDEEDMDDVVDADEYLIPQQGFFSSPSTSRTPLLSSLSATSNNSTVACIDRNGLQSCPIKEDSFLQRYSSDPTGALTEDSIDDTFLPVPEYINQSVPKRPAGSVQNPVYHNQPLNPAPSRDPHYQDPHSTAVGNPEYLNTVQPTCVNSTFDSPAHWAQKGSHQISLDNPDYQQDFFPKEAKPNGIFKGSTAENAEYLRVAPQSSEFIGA

HL-60(TB) = assay: NCI-60 anticancer screening (SRB); assay type: cell-based; settings: Homo sapiens; for inhibition at 10 µM: leukemia, one dose 10 μM, read-out: Growth Inhibition Percentage (GI %)
MOLT-4 = assay: NCI-60 anticancer screening (SRB); assay type: cell-based; settings: Homo sapiens; for inhibition at 10 µM: MOLT-4, leukemia, one dose 10 μM, read-out: Growth Inhibition Percentage (GI %)
EGFR^L858R = EGFR^L858R (Homo sapiens, UniProt P00533, L858R); assay: biochemical
Sequence of EGFR^L858R (P00533 25-1210 L858R): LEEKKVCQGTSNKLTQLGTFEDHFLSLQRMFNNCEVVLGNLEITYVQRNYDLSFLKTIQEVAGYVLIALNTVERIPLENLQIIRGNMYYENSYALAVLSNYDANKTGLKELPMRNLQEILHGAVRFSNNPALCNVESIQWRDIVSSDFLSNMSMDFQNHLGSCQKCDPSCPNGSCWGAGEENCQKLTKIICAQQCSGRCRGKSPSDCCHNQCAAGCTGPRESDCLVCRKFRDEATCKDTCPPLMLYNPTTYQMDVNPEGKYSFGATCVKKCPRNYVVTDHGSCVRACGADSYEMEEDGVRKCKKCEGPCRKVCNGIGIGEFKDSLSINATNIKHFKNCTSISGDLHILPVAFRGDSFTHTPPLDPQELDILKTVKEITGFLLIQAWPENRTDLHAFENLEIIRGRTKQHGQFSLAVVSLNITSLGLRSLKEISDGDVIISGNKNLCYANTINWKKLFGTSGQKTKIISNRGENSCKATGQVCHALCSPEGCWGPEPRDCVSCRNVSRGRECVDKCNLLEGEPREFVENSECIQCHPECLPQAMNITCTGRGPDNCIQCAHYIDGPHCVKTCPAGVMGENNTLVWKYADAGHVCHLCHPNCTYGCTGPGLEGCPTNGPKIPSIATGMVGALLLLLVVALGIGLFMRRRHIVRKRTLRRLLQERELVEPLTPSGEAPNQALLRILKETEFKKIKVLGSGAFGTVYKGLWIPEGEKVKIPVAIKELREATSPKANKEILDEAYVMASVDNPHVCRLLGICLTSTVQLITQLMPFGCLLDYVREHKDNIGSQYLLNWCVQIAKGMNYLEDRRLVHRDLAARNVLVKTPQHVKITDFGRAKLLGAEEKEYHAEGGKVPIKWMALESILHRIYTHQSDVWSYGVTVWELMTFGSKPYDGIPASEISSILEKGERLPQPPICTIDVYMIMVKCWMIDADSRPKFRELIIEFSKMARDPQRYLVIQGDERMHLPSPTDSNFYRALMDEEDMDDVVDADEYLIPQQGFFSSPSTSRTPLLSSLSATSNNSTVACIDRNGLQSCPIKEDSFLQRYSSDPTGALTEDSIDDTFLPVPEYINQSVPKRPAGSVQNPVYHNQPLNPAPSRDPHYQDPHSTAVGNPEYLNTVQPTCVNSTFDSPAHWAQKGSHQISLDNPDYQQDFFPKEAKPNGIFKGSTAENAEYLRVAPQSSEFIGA

CCRF-CEM = assay: NCI-60 anticancer screening (SRB); assay type: cell-based; settings: Homo sapiens; for inhibition at 10 µM: leukemia, one dose 10 μM, read-out: Growth Inhibition Percentage (GI %)
MDA-MB-468 = assay: NCI-60 anticancer screening (SRB); assay type: cell-based; settings: Homo sapiens; for inhibition at 10 µM: MDA-MB-468, breast cancer, one dose 10 μM, read-out: Growth Inhibition Percentage (GI %)
KM 12 = assay: NCI-60 anticancer screening (SRB); assay type: cell-based; settings: Homo sapiens, KM12; for inhibition at 10 µM: KM 12, colon cancer, one dose 10 μM, read-out: Growth Inhibition Percentage (GI %)
HCC-2998 = assay: NCI-60 anticancer screening (SRB); assay type: cell-based; settings: Homo sapiens; for inhibition at 10 µM: HCC-2998, colon cancer, one dose 10 μM, read-out: Growth Inhibition Percentage (GI %)
A549/ATCC = assay: NCI-60 anticancer screening (SRB); assay type: cell-based; settings: Homo sapiens; for inhibition at 10 µM: A549/ATCC, NSC lung cancer, one dose 10 μM, read-out: Growth Inhibition Percentage (GI %)
COLO 205 = assay: NCI-60 anticancer screening (SRB); assay type: cell-based; settings: Homo sapiens; for inhibition at 10 µM: COLO 205, colon cancer, one dose 10 μM, read-out: Growth Inhibition Percentage (GI %)
HCT-15 = assay: NCI-60 anticancer screening (SRB); assay type: cell-based; settings: Homo sapiens; for inhibition at 10 µM: HCT-15, colon cancer, one dose 10 μM, read-out: Growth Inhibition Percentage (GI %)
NCI 60 cancer cell lines = assay: NCI-60 anticancer screening (SRB), whole panel; assay type: cell-based, human; settings: for GI % mean: mean across the NCI-60 panel, one dose 10 μM
NCI-H322M = assay: NCI-60 anticancer screening (SRB); assay type: cell-based; settings: Homo sapiens; for inhibition at 10 µM: NSC lung cancer, one dose 10 μM, read-out: Growth Inhibition Percentage (GI %)
NCI/ADR-RES = assay: NCI-60 anticancer screening (SRB); assay type: cell-based; settings: Homo sapiens, ovarian cancer, one dose 10 μM, read-out: Growth Inhibition Percentage (GI %)
UACC-62 = assay: NCI-60 anticancer screening (SRB); assay type: cell-based; settings: Homo sapiens; for inhibition at 10 µM: UACC-62, melanoma, one dose 10 μM, read-out: Growth Inhibition Percentage (GI %)
RXF 393 = assay: NCI-60 anticancer screening (SRB); assay type: cell-based; settings: Homo sapiens; for inhibition at 10 µM: RXF 393, renal cancer, one dose 10 μM, read-out: Growth Inhibition Percentage (GI %)
MCF7 = assay: NCI-60 anticancer screening (SRB); assay type: cell-based; settings: Homo sapiens; for inhibition at 10 µM: MCF7, breast cancer, one dose 10 μM, read-out: Growth Inhibition Percentage (GI %)
PC-3 = assay: NCI-60 anticancer screening (SRB); assay type: cell-based; settings: Homo sapiens; for inhibition at 10 µM: PC-3, prostate cancer, one dose 10 μM, read-out: Growth Inhibition Percentage (GI %)
MDA-MB-435 = assay: NCI-60 anticancer screening (SRB); assay type: cell-based; settings: Homo sapiens; for inhibition at 10 µM: MDA-MB-435, melanoma, one dose 10 μM, read-out: Growth Inhibition Percentage (GI %)
SK-OV-3 = assay: NCI-60 anticancer screening (SRB); assay type: cell-based; settings: Homo sapiens; for inhibition at 10 µM: SK-OV-3, ovarian cancer, one dose 10 μM, read-out: Growth Inhibition Percentage (GI %)
EGFR^WT = EGFR^WT (Homo sapiens, UniProt P00533); assay: EGFR kinase inhibitory assay (HTRF)
Sequence of EGFR^WT (P00533 25-1210): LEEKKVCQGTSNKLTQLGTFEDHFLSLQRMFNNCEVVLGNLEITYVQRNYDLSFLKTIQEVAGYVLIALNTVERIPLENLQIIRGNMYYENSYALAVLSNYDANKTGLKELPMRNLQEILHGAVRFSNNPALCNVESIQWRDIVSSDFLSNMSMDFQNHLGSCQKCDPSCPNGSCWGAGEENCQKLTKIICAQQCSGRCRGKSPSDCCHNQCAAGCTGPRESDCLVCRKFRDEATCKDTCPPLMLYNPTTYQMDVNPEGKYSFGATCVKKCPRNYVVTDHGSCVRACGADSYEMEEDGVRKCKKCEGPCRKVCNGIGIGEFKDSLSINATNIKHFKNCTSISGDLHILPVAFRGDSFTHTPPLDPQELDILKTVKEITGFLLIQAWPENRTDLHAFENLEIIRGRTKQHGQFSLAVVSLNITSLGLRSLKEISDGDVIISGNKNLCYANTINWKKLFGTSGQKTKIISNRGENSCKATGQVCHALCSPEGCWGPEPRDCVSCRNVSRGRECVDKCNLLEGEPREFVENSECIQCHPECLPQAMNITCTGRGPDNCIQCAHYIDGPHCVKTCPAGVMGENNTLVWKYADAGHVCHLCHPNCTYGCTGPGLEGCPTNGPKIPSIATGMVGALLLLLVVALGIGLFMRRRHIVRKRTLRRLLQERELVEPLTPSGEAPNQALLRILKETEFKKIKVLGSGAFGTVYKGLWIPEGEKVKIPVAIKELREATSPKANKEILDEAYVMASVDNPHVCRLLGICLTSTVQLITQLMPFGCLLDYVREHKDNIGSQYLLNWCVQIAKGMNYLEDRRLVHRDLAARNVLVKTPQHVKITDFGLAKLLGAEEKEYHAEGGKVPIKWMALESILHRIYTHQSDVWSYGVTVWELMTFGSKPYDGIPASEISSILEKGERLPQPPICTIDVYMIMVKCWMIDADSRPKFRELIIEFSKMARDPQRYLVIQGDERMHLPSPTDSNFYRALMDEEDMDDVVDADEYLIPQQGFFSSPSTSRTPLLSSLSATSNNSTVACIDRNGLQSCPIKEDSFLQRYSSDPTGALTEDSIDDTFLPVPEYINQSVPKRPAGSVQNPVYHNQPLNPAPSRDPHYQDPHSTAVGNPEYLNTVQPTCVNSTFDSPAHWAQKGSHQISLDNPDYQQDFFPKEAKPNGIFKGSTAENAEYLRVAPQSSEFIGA

TK-10 = assay: NCI-60 anticancer screening (SRB); assay type: cell-based; settings: Homo sapiens; for inhibition at 10 µM: TK-10, renal cancer, one dose 10 μM, read-out: Growth Inhibition Percentage (GI %)
SW-620 = assay: NCI-60 anticancer screening (SRB); assay type: cell-based; settings: Homo sapiens; for inhibition at 10 µM: SW-620, colon cancer, one dose 10 μM, read-out: Growth Inhibition Percentage (GI %)
BT-549 = assay: NCI-60 anticancer screening (SRB); assay type: cell-based; settings: Homo sapiens; for inhibition at 10 µM: BT-549, breast cancer, one dose 10 μM, read-out: Growth Inhibition Percentage (GI %)
SK-MEL-28 = assay: NCI-60 anticancer screening (SRB); assay type: cell-based; settings: Homo sapiens; for inhibition at 10 µM: SK-MEL-28, melanoma, one dose 10 μM, read-out: Growth Inhibition Percentage (GI %)

Compound: CCOC(=O)C1=C(N)N(c2ccc(Cl)cc2)C2=C(C(=O)CC(C)(C)C2)C1c1ccc(Cl)cc1Cl (racemic) [10d, (±)-Ethyl 2-amino-1–(4-chorophenyl)-4–(2,4-dichlorophenyl)-7,7-dimethyl-5-oxo-1-phenyl-1,4,5,6,7,8-hexahydroquinoline-3-carboxylate]
- inhibition at 10 µM (OVCAR-4): 56%
- inhibition at 10 µM (UO-31): 65%
- inhibition at 10 µM (OVCAR-8): 29%
- inhibition at 10 µM (MDA-MB-231): 42%
- inhibition at 10 µM (OVCAR-3): 49%
- inhibition at 10 µM (HS 578T): < 10%
- IC50 (EGFR^T790M): 280 ± 1 nM
- inhibition at 10 µM (HL-60(TB)): 79%
- inhibition at 10 µM (MOLT-4): 71%
- IC50 (EGFR^L858R): 51 ± 1 nM
- inhibition at 10 µM (CCRF-CEM): 64%
- inhibition at 10 µM (MDA-MB-468): 82%
- inhibition at 10 µM (KM 12): 54%
- inhibition at 10 µM (HCC-2998): 23%
- inhibition at 10 µM (A549/ATCC): 48%
- inhibition at 10 µM (COLO 205): 53%
- inhibition at 10 µM (HCT-15): 65%
- GI % mean (NCI 60 cancer cell lines): 48%
- inhibition at 10 µM (NCI-H322M): 29%
- inhibition at 10 µM (NCI/ADR-RES): 47%
- inhibition at 10 µM (UACC-62): 45%
- inhibition at 10 µM (RXF 393): 38%
- inhibition at 10 µM (MCF7): 70%
- inhibition at 10 µM (PC-3): 79%
- inhibition at 10 µM (MDA-MB-435): 42%
- inhibition at 10 µM (SK-OV-3): 46%
- IC50 (EGFR^WT): 97 ± 5 nM
- inhibition at 10 µM (TK-10): 30%
- inhibition at 10 µM (SW-620): < 10%
- inhibition at 10 µM (BT-549): 24%
- inhibition at 10 µM (SK-MEL-28): 30%

Compound: CCOC(=O)C1=C(N)N(c2ccccc2)C2=C(C(=O)CC(C)(C)C2)C1c1ccc(Cl)cc1Cl (racemic) [10c, (±)-Ethyl 2-amino-4–(2,4-dichlorophenyl)-7,7-dimethyl-5-oxo-1-phenyl-1,4,5,6,7,8-hexahydroquinoline-3-carboxylate]
- inhibition at 10 µM (OVCAR-4): 75%
- GI50 (OVCAR-4; OVCAR-4, five doses 0.01-100 µM, 48 h): 2830 nM
- inhibition at 10 µM (UO-31): 83%
- GI50 (UO-31; UO-31, five doses 0.01-100 µM, 48 h): 1150 nM
- inhibition at 10 µM (OVCAR-8): 63%
- GI50 (OVCAR-8; OVCAR-8, five doses 0.01-100 µM, 48 h): 3720 nM
- inhibition at 10 µM (MDA-MB-231): 75%
- GI50 (MDA-MB-231; MDA-MB-231, five doses 0.01-100 µM, 48 h): 3340 nM
- inhibition at 10 µM (OVCAR-3): 67%
- GI50 (OVCAR-3; OVCAR-3, five doses 0.01-100 µM, 48 h): 2620 nM
- inhibition at 10 µM (HS 578T): < 10%
- GI50 (HS 578T; HS 578 T, five doses 0.01-100 µM, 48 h): 7680 nM
- IC50 (EGFR^T790M): 586 ± 3 nM
- GI50 (HL-60(TB); five doses 0.01-100 µM, 48 h): 5950 nM
- inhibition at 10 µM (HL-60(TB)): 99%
- inhibition at 10 µM (MOLT-4): 93%
- GI50 (MOLT-4; MOLT-4, five doses 0.01-100 µM, 48 h): 9560 nM
- IC50 (EGFR^L858R): 623 ± 5 nM
- GI50 (CCRF-CEM; five doses 0.01-100 µM, 48 h): 3100 nM
- inhibition at 10 µM (CCRF-CEM): 80%
- inhibition at 10 µM (MDA-MB-468): 96%
- GI50 (MDA-MB-468; MDA-MB-468, five doses 0.01-100 µM, 48 h): 6830 nM
- inhibition at 10 µM (KM 12): 81%
- GI50 (KM 12; KM-12, five doses 0.01-100 µM, 48 h): 2360 nM
- inhibition at 10 µM (HCC-2998): 62%
- GI50 (HCC-2998; HCC-2998, five doses 0.01-100 µM, 48 h): 2770 nM
- inhibition at 10 µM (A549/ATCC): 73%
- GI50 (A549/ATCC; A549, five doses 0.01-100 µM, 48 h): 1880 nM
- inhibition at 10 µM (COLO 205): 91%
- GI50 (COLO 205; COLO-205, five doses 0.01-100 µM, 48 h): 2060 nM
- inhibition at 10 µM (HCT-15): 86%
- GI50 (HCT-15; HCT-15, five doses 0.01-100 µM, 48 h): 1520 nM
- LC50 (50% lethal concentration) (NCI 60 cancer cell lines; Homo sapiens, 60 cell, five doses, read-out: LC50 values towards 60 cell lines): > 100000 nM
- GI50 (NCI 60 cancer cell lines; Homo sapiens, five doses 0.01-100 µM, 48 h, read-out: GI50 range against nearly all the tested cell lines): 1040 to 9560 nM
- GI % mean (NCI 60 cancer cell lines): 74%
- GI50 (NCI-H322M; NCI-H322-M, five doses 0.01-100 µM, 48 h): 7710 nM
- inhibition at 10 µM (NCI-H322M): 43%
- inhibition at 10 µM (NCI/ADR-RES): 76%
- inhibition at 10 µM (UACC-62): 73%
- GI50 (UACC-62; UACC-62, five doses 0.01-100 µM, 48 h): 1260 nM
- inhibition at 10 µM (RXF 393): 79%
- GI50 (RXF 393; RXF 393, five doses 0.01-100 µM, 48 h): 1380 nM
- inhibition at 10 µM (MCF7): 91%
- GI50 (MCF7; MCF7, five doses 0.01-100 µM, 48 h): 1770 nM
- inhibition at 10 µM (PC-3): 90%
- GI50 (PC-3; PC-3, five doses 0.01-100 µM, 48 h): 4140 nM
- inhibition at 10 µM (MDA-MB-435): 71%
- GI50 (MDA-MB-435; MDA-MB-435, five doses 0.01-100 µM, 48 h): 3210 nM
- inhibition at 10 µM (SK-OV-3): 66%
- GI50 (SK-OV-3; SK-OV-3, five doses 0.01-100 µM, 48 h): 3350 nM
- IC50 (EGFR^WT): 148 ± 40 nM
- inhibition at 10 µM (TK-10): 63%
- GI50 (TK-10; TK-10, five doses 0.01-100 µM, 48 h): 5630 nM
- inhibition at 10 µM (SW-620): < 10%
- GI50 (SW-620; SW-620, five doses 0.01-100 µM, 48 h): 2900 nM
- inhibition at 10 µM (BT-549): 67%
- GI50 (BT-549; BT-549, five doses 0.01-100 µM, 48 h): 4580 nM
- inhibition at 10 µM (SK-MEL-28): 49%
- GI50 (SK-MEL-28; SK-MEL-28, five doses 0.01-100 µM, 48 h): 6670 nM
